Key:
Assay type in all cases: cell-based
human α7 NNR = target: T1, human α7 NNR (Homo sapiens, UniProt P36544); assay: Two-electrode voltage-clamp in Xenopus laevis oocytes: potentiation of ACh-evoked α7 currents; settings: FIG. 1A
T1 construct: expressed in transfected cells; host or cells: Xenopus laevis oocytes injected with cRNA
Experimental: (i) Two-Electrode Voltage-Clamp in Xenopus laevis Oocytes.
X. laevis oocytes were prepared for electrophysiological experiments as described in the literature (see for example, Briggs, C. A., Mckenna, D. G., and Piattina-kaplan, M., Human α7 nicotinic acetylcholine receptor responses to novel ligands, Neuropharmacology, 1995, 34: 583-590; Briggs, C. A., and Mckenna, D. G., Activation and inhibition of the human α7 nicotinic acetylcholine receptor by agonists, Neuropharmacology, 1998, 37: 1095-1102). […] Responses were measured by two-electrode voltage clamp using parallel oocyte electrophysiology test station (Abbott, Abbott Park, Ill.) (see for example, Trumbull, J. D., Maslana, E. S., McKenna, D. G., Nemcek, T. A., Niforatos, W., Pan, J. Y., Parihar, A. S., Shieh, C. C., Wilkins, J. A., Briggs, C. A., and Bertrand, D., High throughput electrophysiology using a fully automated, multiplexed recording system, Receptors Channels, 2003, 9: 19-28). […] The data were expressed as percentage potentiation over the response to 0.1 mM ACh alone. […]

α7 NNRs [1] = target: T2, α7 NNRs (Homo sapiens, UniProt P36544); assay: High-throughput calcium flux (FLIPR) assay using IMR-32 cells expressing endogenous α7 NNRs; parameters: Emax: dose or concentration left out as unconfirmed
T2 construct: using cells natively expressing α7 NNRs; host or cells: IMR-32 neuroblastoma cells
T2 sequence (P36544 23-502): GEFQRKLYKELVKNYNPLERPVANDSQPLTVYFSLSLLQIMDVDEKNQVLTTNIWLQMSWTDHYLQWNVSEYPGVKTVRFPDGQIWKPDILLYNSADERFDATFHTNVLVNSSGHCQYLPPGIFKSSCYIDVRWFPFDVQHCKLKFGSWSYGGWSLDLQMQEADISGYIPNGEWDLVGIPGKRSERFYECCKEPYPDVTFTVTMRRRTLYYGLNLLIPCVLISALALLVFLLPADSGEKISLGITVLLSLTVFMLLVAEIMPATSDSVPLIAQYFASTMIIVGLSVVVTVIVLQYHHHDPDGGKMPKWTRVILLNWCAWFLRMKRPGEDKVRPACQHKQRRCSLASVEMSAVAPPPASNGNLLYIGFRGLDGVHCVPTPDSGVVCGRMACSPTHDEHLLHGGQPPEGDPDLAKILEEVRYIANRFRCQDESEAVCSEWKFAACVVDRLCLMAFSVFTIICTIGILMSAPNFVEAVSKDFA
Experimental: (ii) High-Throughput Calcium Flux Assays Using Cells Expressing Endogenous α7 NNRs
IMR-32 neuroblastoma cells (ATCC) were grown to confluency in 162 cm^2 tissue culture flasks in minimum essential media supplemented with 10% FBS and 1 mM sodium pyruvate, 0.1 mM non-essential amino acids and 1% antibiotic-antimycotic. The cells were then dissociated using cell dissociation buffer and 40 μl of 3.5×10^5 cells/ml cell suspension was plated (about 15,000 cells/well) into black plates with clear bottom and maintained for 48 hours in a tissue culture incubator at 37° C. under an atmosphere of 5% CO2: 95% air. […] Calcium flux was measured using calcium-3 assay kit (Molecular Devices, Sunnyvale, Calif.) or fluo-4. A stock solution of the dye was prepared by dissolving each vial supplied by the vendor in Hank's balanced salt solution buffer (HBSS) containing 20 mM HEPES. The stock solution was diluted 1:20 using the same buffer before use. After removing the growth media, the cells were loaded with 45 μl of the dye and incubated at room temperature for three hours. Fluorescence measurements were read simultaneously from all the wells by a Fluorometric Imaging Plate Reader (FLIPR) at an excitation wavelength of 480 nm and an emission wavelength of 520 nm. Baseline fluorescence was measured for the first 10 seconds at which 5× concentrations of modulator/test compounds were added to the cell plate and incubated for three minutes. The fluorescence intensity was captured every second for the first 1 minute followed by every 5 seconds for an additional 2 minutes. This procedure was followed by 20 μl of 4× concentration of agonist and readings were taken for a period of three minutes as described above. […] The concentration dependence of changes fluorescence responses was fitted by nonlinear regression analysis (GraphPad Prism, San Diego, Calif.) to obtain EC50 values.
PAMs were identified by measuring fluorescence changes to intracellular calcium in a fluorometric plate reader in the presence of selective α7 NNR agonists using cells natively expressing α7 NNRs. […]

α7 NNRs [2] = target: T3, α7 NNRs (Rattus norvegicus, UniProt Q05941); assay: High-throughput ERK phosphorylation assay (in-cell western) using PC-12 cells expressing endogenous α7 NNRs
T3 construct: host or cells: PC-12 rat pheochromocytoma cells
T3 sequence (Q05941 23-502): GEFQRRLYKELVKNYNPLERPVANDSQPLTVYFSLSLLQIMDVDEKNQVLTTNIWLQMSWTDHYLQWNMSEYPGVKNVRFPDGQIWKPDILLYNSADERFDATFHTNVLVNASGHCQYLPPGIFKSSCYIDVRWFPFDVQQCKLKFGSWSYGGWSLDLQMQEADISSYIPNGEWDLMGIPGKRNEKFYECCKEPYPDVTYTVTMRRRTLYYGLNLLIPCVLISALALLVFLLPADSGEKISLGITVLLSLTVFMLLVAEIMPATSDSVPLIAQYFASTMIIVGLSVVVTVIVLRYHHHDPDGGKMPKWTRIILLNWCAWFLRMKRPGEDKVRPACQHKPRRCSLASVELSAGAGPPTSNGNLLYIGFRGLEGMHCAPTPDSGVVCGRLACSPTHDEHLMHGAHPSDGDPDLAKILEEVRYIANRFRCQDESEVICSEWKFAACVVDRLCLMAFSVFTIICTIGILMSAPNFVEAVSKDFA
Experimental: (iii) High-Throughput ERK Phosphorylation Assays Using Cells Expressing Endogenous α7 NNRs
Rat pheochromocytoma (PC-12) cells (ATCC, Manassas, Va.) were cultured and maintained in F-12K media supplemented with 15% horse serum, 2.5% fetal calf serum, and 2 mM L-glutamine in poly-D lysine coated dishes at 37° C. and 5% CO2. Cells were plated in black-walled clear bottom 96-well Biocoat™ plates coated with poly-D-lysine (BD Biosciences, Bedford, Mass.) and grown for 2-3 days. Afterward, the culture media is replaced with serum-free media to starve cells overnight. On the day of the assay, cell media was removed and cells (60-80% confluent) were treated with agonist and/or modulator in Dulbecco's phosphate buffer saline (D-PBS) (with Ca^2+, Mg^2+, and 1 mg/ml D-glucose), as indicated in the result section.
PC-12 cells are treated for 10 minutes at 37° C. with test PAM compounds and then challenged with a selective α7 agonist for 5 minutes at 37° C. in a final volume of 100 μl/well, unless otherwise indicated. After treatment, media was discarded and adherent cells were immediately fixed in the presence of 150 μl/well of 3.7% formaldehyde/phosphate-buffered saline for 30-60 minutes at room temperature. […] Well intensities were quantitated and phospho-ERK signals were normalized to total ERK signals by the Odyssey software. […]

T1 sequence (P36544 23-502): as the sequence (P36544 23-502) above

Row | Compound | EC50 (human α7 NNR; 0.1 mM ACh, oocytes injected with human α7 NNR cRNA, read-out: EC50 value, potentiating 0.1 mM ACh-evoked α7 currents in oocytes) | degree of potentiation (human α7 NNR; percentage potentiation over the response to 0.1 mM ACh alone) | EC50 (α7 NNRs [1]; FIG. 1B, IMR-32 cells, agonist 4-(5-phenyl-[1,3,4]oxadiazol-2-yl)-1,4-diaza-bicyclo[3.2.2]nonane at 10 μM, read-out: EC50 value, calcium fluorescence response) | Emax (α7 NNRs [1]; IMR-32, read-out: maximal effects, normalized change in fluorescence) | EC50 (α7 NNRs [2]; FIG. 1C, PC-12 cells, α7 selective agonist PNU-282987) | Emax (α7 NNRs [2]; PC-12, read-out: maximal efficacy) | effect on calcium response to agonist plus modulator (α7 NNRs [1]; IMR-32 cells, α7 selective antagonist)
1 | Cc1cn(-c2ccc(C(F)(F)F)cc2)/c(=N/C(=O)N2CCCC2)s1 [Example 18, N-[(2Z)-5-methyl-3-[4-(trifluoromethyl)phenyl]-1,3-thiazol-2(3H)-ylidene]pyrrolidine-1-carboxamide] | 4 µM | 300% | 3.4 µM | 110% | 1.4 µM | 111% | 
2 | CCN1C[C@]2(COC(=O)c3ccccc3N3C(=O)C[C@H](C)C3=O)CC[C@H](OC)[C@@]34[C@@H]5C[C@H]6[C@H](OC)[C@@H]5[C@](O)(C[C@@H]6OC)[C@@](O)([C@@H](OC)[C@H]23)[C@@H]14 [methyllycaconitine, reference compound] |  |  |  |  |  |  | abolishes response

From patent publication US8383657B2, “Thiazolylidine urea and amide derivatives and methods of use thereof” (Abbott Laboratories, priority 2007, dated 2013)
